One data set deals with T1, NHE-1 (Mus musculus, UniProt Q61165).
T1 construct: time-course of ^22Na^+ influx studied in wild type and dystrophic myotube cultures; endogenous in cells; host or cells: primary wild type and dystrophic myotubes
Put plainly: 22Na+ influx in myotube cultures. In kind it is cell-based.

The test system of data set [1] is store-operated calcium entry (SOCE). Put plainly: Store-operated calcium entry (45Ca2+ accumulation) in myotubes. In kind it is cell-based.
The subject of data set [2] is male mdx mice. Put plainly: Cathepsin enzyme activity by optical imaging (skeletal muscle inflammation) in mdx mice. In kind it is in vivo, mouse. As to conditions: 400 ppm Rimeporide in food, 5 weeks.
Data set [3] concerns male mdx mice. Put plainly: Ex vivo H&E histopathology of diaphragm inflammation in mdx mice. Also on record: species or system mouse. As to conditions: 400 ppm Rimeporide.
In a further data set the test system is human platelet swelling. Put plainly: In vitro platelet swelling assay with human platelet rich plasma. The settings on record: OD 680 nm, pH 6.6, read-out: IC50 of inhibition of platelet swelling (+SEM). Type of data set: cell-based.
In data set [4] the test system is platelet swelling. As to the kind of experiment: Ex vivo platelet swelling, Rimeporide single oral ascending dose study. Type of data set: in vivo, human. As to conditions: single oral dose 300 to 600 mg, healthy male volunteers.
The subject of data set [5] is platelet swelling. Put plainly: Ex vivo platelet swelling, Rimeporide multiple ascending dose study. The settings on record: day 3, multiple ascending dose study. In kind it is in vivo, human.
The target of data set [6] is T2, sodium-hydrogen exchange activity (NHE-1) (Rattus norvegicus, UniProt P26431).
T2 construct: performed in rat PASMCs in vitro of both Normoxic and Su/Hx pulmonary hypertension (PH) rats; endogenous in cells; host or cells: primary rat PASMCs from normoxic and Su/Hx pulmonary hypertension rats
T2 sequence (P26431 whole entry): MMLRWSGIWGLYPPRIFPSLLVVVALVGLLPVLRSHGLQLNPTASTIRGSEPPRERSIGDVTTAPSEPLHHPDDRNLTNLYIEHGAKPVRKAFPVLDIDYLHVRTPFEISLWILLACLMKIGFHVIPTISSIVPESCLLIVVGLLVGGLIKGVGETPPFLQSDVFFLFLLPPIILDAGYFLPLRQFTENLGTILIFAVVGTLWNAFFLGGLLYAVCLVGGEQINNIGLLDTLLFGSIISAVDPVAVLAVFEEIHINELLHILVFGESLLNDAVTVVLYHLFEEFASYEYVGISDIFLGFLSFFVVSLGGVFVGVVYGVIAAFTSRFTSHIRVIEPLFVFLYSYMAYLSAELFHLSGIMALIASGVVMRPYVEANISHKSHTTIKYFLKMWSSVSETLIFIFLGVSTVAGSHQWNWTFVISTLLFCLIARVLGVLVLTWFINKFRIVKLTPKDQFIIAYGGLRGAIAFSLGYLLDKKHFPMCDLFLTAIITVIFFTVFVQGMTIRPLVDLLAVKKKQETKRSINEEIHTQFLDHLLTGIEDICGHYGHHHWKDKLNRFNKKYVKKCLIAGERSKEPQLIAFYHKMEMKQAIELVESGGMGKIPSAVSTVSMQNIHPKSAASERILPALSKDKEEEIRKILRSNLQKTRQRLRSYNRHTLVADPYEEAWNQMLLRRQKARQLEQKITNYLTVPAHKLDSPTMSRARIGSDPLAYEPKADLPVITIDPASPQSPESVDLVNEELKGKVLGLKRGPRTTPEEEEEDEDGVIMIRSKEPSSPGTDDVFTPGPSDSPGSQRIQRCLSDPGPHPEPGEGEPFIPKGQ
As to the kind of experiment: NHE activity (BCECF) in rat pulmonary arterial smooth muscle cells. Type of data set: cell-based. As to conditions: PASMCs of Su/Hx pulmonary hypertension rats, 10^-6 to 10^-4 M.

Data set [7] has as its system Su/Hx rat model of PAH. Put plainly: Su/Hx rat model of PAH: echocardiography. In kind it is in vivo. As to conditions: 100 mg/kg/day in drinking water week 5-8; Su/Hx+Rime vs Su/Hx, week 8.
In data set [8] the test system is Su/Hx rat model of PAH. Put plainly: Su/Hx rat model of PAH: invasive hemodynamic monitoring. In kind it is in vivo. As to conditions: 100 mg/kg/day in drinking water week 5-8; Su/Hx+Rime vs Su/Hx, week 8.
Data set [9] has as its system Su/Hx rat model of PAH. As to the kind of experiment: Su/Hx rat model of PAH: right ventricle hypertrophy and fibrosis. In kind it is in vivo. As to conditions: 100 mg/kg/day in drinking water week 5-8; Su/Hx+Rime vs Su/Hx, week 8.
Data set [10] concerns Su/Hx rat model of PAH. Put plainly: Su/Hx rat model of PAH: pulmonary vascular fibrosis (Masson trichome). The settings on record: 100 mg/kg/day in drinking water week 5-8; Su/Hx+Rime vs Su/Hx, week 8. In kind it is in vivo.
In data set [11] the test system is Su/Hx rat model of PAH. Put plainly: Su/Hx rat model of PAH: lung inflammation (CD68). In kind it is in vivo. The settings on record: 100 mg/kg/day in drinking water week 5-8; Su/Hx+Rime vs Su/Hx, week 8.
The subject of data set [12] is rat model of heart failure. As to the kind of experiment: Rat model of heart failure after myocardial infarction (permanent left coronary artery ligation). In kind it is in vivo.
For data set [13], the system named is rat model of myocardial infarction. Put plainly: Rat model of myocardial infarction (30 min occlusion, 90 min reperfusion). In kind it is in vivo. As to conditions: prophylactic, 0.01 to 1 mg/kg intravenously and 0.1 to 1 mg/kg per os.
Data set [14] relates to pigs of myocardial infarction. Put plainly: Anesthetized open-chest pig model of myocardial infarction. In kind it is in vivo. The settings on record: 1 mg/kg iv before occlusion, 7 mg/kg iv before reperfusion.
The subject of the next data set is dystrophic, mdx mice. As to the kind of experiment: Fibrosis in heart and diaphragm of mdx mice. In kind it is in vivo, mouse. The settings on record: given in a preventive manner.
For data set [15] the following is noted: single oral dose.
The test system of data set [16] is plasma circulating biomarkers (CCL15, KLK6, FAS, TNFα, MCP-1/CCL2). Details: Term, TNFα: unit not given here. As to conditions: DMD patients, 4-week oral treatment, cited from earlier work.
In data set [17] the target is SARS-CoV envelope protein ion channels (SARS-CoV E protein) (Severe acute respiratory syndrome coronavirus, UniProt P59637). As to conditions: cited from earlier work.
SARS-CoV envelope protein ion channels (SARS-CoV E protein), sequence (P59637 whole entry, looked up): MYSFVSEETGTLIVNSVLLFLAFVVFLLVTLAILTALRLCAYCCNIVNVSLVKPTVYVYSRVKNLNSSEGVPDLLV
The test system of data set [18] is platelet swelling. As to the kind of experiment: Ex vivo platelet swelling, Eniporide phase I studies in healthy subjects. Details: species or system human.
Another data set deals with LPS induced lung injury. The settings on record: amiloride pretreatment 10 mg/kg intravenous injection, rats; cited from earlier work.

Entries after “also recorded” stand apart in the source; their conditions may differ. Like-named read-outs stand apart in the source and are kept apart here.

The IC50 is the concentration that gives 50% inhibition.

T1 sequence (Q61165 whole entry): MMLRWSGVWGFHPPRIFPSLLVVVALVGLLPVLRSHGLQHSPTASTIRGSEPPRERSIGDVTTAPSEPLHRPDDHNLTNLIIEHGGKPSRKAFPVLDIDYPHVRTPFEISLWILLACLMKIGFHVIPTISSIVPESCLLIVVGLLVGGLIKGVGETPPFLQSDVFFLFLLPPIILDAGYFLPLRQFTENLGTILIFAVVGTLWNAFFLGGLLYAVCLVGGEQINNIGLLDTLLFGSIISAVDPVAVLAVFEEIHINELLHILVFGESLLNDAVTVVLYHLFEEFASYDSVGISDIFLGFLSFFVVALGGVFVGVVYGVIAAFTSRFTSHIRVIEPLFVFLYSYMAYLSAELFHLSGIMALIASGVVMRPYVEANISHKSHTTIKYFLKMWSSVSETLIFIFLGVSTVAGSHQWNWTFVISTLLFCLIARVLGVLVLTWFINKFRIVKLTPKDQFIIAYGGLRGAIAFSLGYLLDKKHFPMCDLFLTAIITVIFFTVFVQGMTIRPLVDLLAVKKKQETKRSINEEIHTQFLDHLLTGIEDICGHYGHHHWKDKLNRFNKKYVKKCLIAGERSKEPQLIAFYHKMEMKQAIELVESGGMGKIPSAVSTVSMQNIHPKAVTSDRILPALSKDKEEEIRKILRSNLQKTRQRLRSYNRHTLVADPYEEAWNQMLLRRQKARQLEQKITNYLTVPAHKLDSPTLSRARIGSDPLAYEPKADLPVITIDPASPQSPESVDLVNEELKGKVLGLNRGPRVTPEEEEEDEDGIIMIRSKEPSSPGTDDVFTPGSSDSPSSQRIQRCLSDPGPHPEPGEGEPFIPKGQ

Regarding `N=C(N)NC(=O)c1cnn(-c2cccc3ncccc23)c1C1CC1` [Zoniporide, reference compound], the “comparison of NHE inhibitors on 22Na+ fluxes (rank order)” value at NHE-1 (myotubes) is given as “Zoniporide>Cariporide, EIPA>Rimeporide”. In addition, the “comparison of NHE inhibitors on SOCE (rank order)” value in data set [1] is “Zoniporide>Cariporide, EIPA>Rimeporide”.
As to `Cc1cc(S(C)(=O)=O)c(S(C)(=O)=O)cc1C(=O)NC(=N)N` [Rimeporide, N-(4,5-bismethanesulfonyl-2-methylbenzoyl)guanidine], the “reduction in Cathepsin B activity, forelimb” value in the data set on male mdx mice [2] (forelimb) is listed as −26%. Also, the “reduction in Cathepsin B activity, hindlimb” value with male mdx mice [2] (hindlimb) was −22%. For the same compound, in the data set on male mdx mice [3], the “reduction in inflammation in the diaphragm (H&E) relative to vehicle” value was 44%. The inhibition at 100 µM on NHE-1 (100 μM, after 10 to 20 min of influx, myotube cultures, read-out: inhibition of 22Na+ accumulation / Na+ influx) was around 40%. In addition, the “comparison of NHE inhibitors on 22Na+ fluxes (rank order)” value at NHE-1 (myotubes) is “weakest inhibitor”. Also, the “effect on 22Na+ accumulation” value at NHE-1 (pretreatment 1-100 μM, normal and dystrophic myotubes) is “dose-dependent inhibition”. Besides, the “effect on store-operated calcium entry (SOCE)” value in data set [1] is on record as “inhibition of SOCE; also recorded: dose-dependently prevented SOCE”. Besides, in [1] (dystrophic myotubes), the “concentration giving strong SOCE inhibition reaching basal levels” value was 30 µM and the “lowest concentration with statistical differences in SOCE inhibition” value is 3 µM. Further, the “comparison of NHE inhibitors on SOCE (rank order)” value in data set [1] (myotubes) is reported as “weakest inhibitor”. Moreover, in the data set on human platelet swelling, the concentration for half-maximal inhibition (IC50) amounted to 455 nM. Also, in the data set with platelet swelling [4], the “rate constant of platelet swelling reaction post-dose vs pre-dose” value is recorded as “post-dose decrease in rate constant was consistently observed”. Besides, in the data set on platelet swelling [5], the “subjects with some evidence of platelet swelling inhibition” value worked out at 67%. Further, the “effect on NHE activity in PASMCs” value in data set [6] is “inhibits NHE activity in the PASMCs in a dose-dependent manner”. For the same compound, in the data set with Su/Hx rat model of PAH [7], the “Mean Pulmonary Arterial Pressure (mPAP)” value was “significantly lower mPAP”, the “Pulmonary Artery Acceleration Time/Ejection Time (PA AT/ET)” value was “significantly higher PA AT/ET ratio”, the “RV cardiac output (CO)” value is on record as “significantly higher RV CO” and the “RV free wall thickness” value is given as “significantly lower RV free wall thickness”. Besides, the “RV internal diameter at diastole” value with Su/Hx rat model of PAH [7] is reported as “significantly lower RV internal diameter”. For the same compound, in the data set with Su/Hx rat model of PAH [8], the “RV End Diastolic Pressure (EDP)” value is listed as “significantly lower pressure”, the “RV Tau” value is given as “significantly lower Tau” and the RV systolic pressure entry is “significantly lower pressure”. For the same compound, in the data set on Su/Hx rat model of PAH [9], the “RV fibrosis (Sirius Red)” value is recorded as “significantly lower fibrosis” and the “Right Ventricle/Left Ventricle+Septum (RV/LV+S) weight ratio” value is reported as “no statistically significant difference”. Moreover, in the data set on Su/Hx rat model of PAH [10], the pulmonary vascular fibrosis result is “significantly lower fibrosis”. In addition, the “percentage of CD68+ cells relative to total nuclei in lung tissue” value in the data set on Su/Hx rat model of PAH [11] is listed as “significantly lower”. In data set [12], the “myocardial hypertrophy and left ventricular function” value was “significantly and dose dependently reduce myocardial hypertrophy and preserve left ventricular function”; the survival entry is “substantial improvement in survival”. In addition, the infarct size result in data set [13] is reported as “reduce dose dependent infarct size”. In addition, in data set [14], the infarct size entry was “decrease infarct size”. The “fibrosis in the heart and the diaphragm” value in the data set on dystrophic, mdx mice is recorded as “antifibrotic effect”. The “plasma concentration, Subject 15” value in data set [15] (1 hour post-dose) was 159 ng/mL. For the same compound, the “plasma concentration, Subject 15” value in data set [15] (3 hours post-dose) was 3690 ng/mL. For the same compound, the “effect on platelet aggregation” value in the data set with platelet aggregation (Rimeporide single oral dose, 10 μM ADP, 3, 24 and 48 hours post-dose) is recorded as “no evidence of inhibition of platelet aggregation”. Where the note is “Rimeporide single oral dose study”, the “effects on PT and APTT” value is given as “No effects”. The “Term, TNFα” value in data set [16] (Luminex) is recorded as −0.1726. Besides, in data set [16] (OLink), the “Term, CCL15” value is reported as −0.4489; the “Term, FAS” value is given as −0.2823; the “Term, KLK6” value is −0.2612; the “Term, MCP-1/CCL2” value was −0.5675.
In the case of `NC(N)=NC(=O)c1nc(Cl)c(N2CCCCCC2)nc1N` [HMA, 5-N, N-(hexamethylene)amiloride], in data set [17], the “effect on activity of E-proteins (ion channel)” value is listed as “significantly reduced activity of E-proteins”.
Regarding `CCN(c1nc(N)c(C(=O)N=C(N)N)nc1Cl)C(C)C` [EIPA, 5-(N-ethyl-N-isopropyl)amiloride, reference compound], the “comparison of NHE inhibitors on 22Na+ fluxes (rank order)” value at NHE-1 (myotubes) is “Zoniporide>Cariporide, EIPA>Rimeporide”. The “comparison of NHE inhibitors on SOCE (rank order)” value in [1] (myotubes) is recorded as “Zoniporide>Cariporide, EIPA>Rimeporide”.
On to `Cc1nnsc1C(=O)Nc1ccc(-n2nc(C(F)(F)F)cc2C(F)(F)F)cc1` [BTP-2, reference compound], for which the “effect on store-operated calcium entry (SOCE)” value in [1] is “abolished”. For the same compound, the “inhibition of Ca2+ flux (SOCE protocol)” value in [1] (10 μM) was “almost complete inhibition”.
`Cc1cc(-n2cccc2)c(S(C)(=O)=O)cc1C(=O)NC(=N)N` [Eniporide, N-(diaminomethylidene)-2-methyl-5-methylsulfonyl-4-pyrrol-1-ylbenzamide]: the IC50 in the data set with human platelet swelling came out at 30 nM. Also, the “inhibition of platelet swelling immediately post dosing” value with platelet swelling [18] (50 mg and above, intravenous) was “total inhibition”. Also, the “inhibitory activity on platelet swelling” value in the data set on platelet swelling [18] (2 times 200 mg as an infusion, 6 hours post first dose) was 80%. Besides, the “inhibitory activity on platelet swelling remaining” value is on record as “More than 80%” in the data set on platelet swelling [18] (1.5 hours post dose, doses 100-200 mg) and “More than 80%” in the data set on platelet swelling [18] (3 hours post dose, doses 250-400 mg). For the same compound, the “dose from which platelet swelling was reduced” value in the data set on platelet swelling [18] (healthy subjects, single intravenous dose) is on record as at least 5 mg. In addition, in the data set on platelet aggregation (human, in vivo), the “effect on platelet aggregation” value is “No clinically relevant effect”. Further, the “effects on PT or APTT” value (human, in vivo) is reported as “no clinically relevant effects”.
For the compound `NC1=N[C@H](O)[C@H]2[C@H]3O[C@]4(O)O[C@@H]([C@@H](O)[C@@]2(N1)[C@@H]4O)[C@]3(O)CO` [tetrodotoxin], the “further decrease of 22Na+ influx” value at NHE-1 is given as “around 8%”.
Turning to `NC(N)=NC(=O)c1nc(Cl)c(N)nc1N` [Amiloride, 3,5-Diamino-N-carbamimidoyl-6-chlorpyrazin-2-carbamid], in [17], the “effect on activity of E-proteins (ion channel)” value is given as “quasi-ineffective”. The “LPS induced lung injury” value with LPS induced lung injury is given as “significantly inhibited”.
In the case of `CC(C)c1ccc(C(=O)NC(=N)N)cc1S(C)(=O)=O` [Cariporide, N-(Diaminomethylidene)-3-methanesulfonyl-4-(propan-2-yl) benzamide], the “comparison of NHE inhibitors on 22Na+ fluxes (rank order)” value on NHE-1 was “Zoniporide>Cariporide, EIPA>Rimeporide”. The “comparison of NHE inhibitors on SOCE (rank order)” value in [1] is reported as “Zoniporide>Cariporide, EIPA>Rimeporide”. In addition, the IC50 in the data set on human platelet swelling was found to be 166 nM.
